Experimental findings from paper PMC11203978, “Discovery of Di(het)arylmethane and Dibenzoxanthene Derivatives as Potential Anticancer Agents” (International Journal of Molecular Sciences, 2024) are described below.

Read-outs that look alike come from different tables or passages of the source.

The subject of data set [1] is HuTu 80 cells. The data set can be described thus: Mitochondrial membrane potential, JC-10 flow cytometry. Type of data set: cell-based, human. As to conditions: 24 h treatment, IC50/2 and IC50. The protocol: In this study, we used the fluorescent dye JC-10 from the Mitochondria Membrane Potential Kit (Sigma, St. Louis, MO, USA). Changes in mitochondrial membrane potential under the influence of lead compounds 5a and 6a were determined at IC50/2 and IC50 concentrations on the HuTu 80 cell line. When JC-10 accumulates in the mitochondrial matrix, it forms fluorescent J-aggregates. Their red fluorescence is characteristic for normal cells with high mitochondrial membrane potential. The reduction in mitochondrial membrane potential in apoptotic cells allows JC-10 to escape out of the mitochondria in a monomeric form which has green fluorescence. The mitochondrial membrane potential of HuTu 80 cells is decreased after 24 h treatment with the lead compounds 5a and 6a. The change becomes more pronounced as the concentrations of the tested compounds approach IC50 (Figure 7).
(§1) Cell Culture. HuTu 80 cells at 1 × 10^6 cells/well in a final volume of 2 mL were seeded into six-well plates. After 48 h of incubation, various concentrations of lead compounds were added to wells.
Mitochondrial Membrane Potential. […] After the cells were rinsed three times and suspended in PBS, the JC-10 fluorescence was observed using flow cytometry (Guava easy Cyte, MERCK, Rahway, NJ, USA).
On the technique in general: A flow cytometer gives signals particle by particle.

The test system of data set [2] is A549. Briefly: MTT cytotoxicity, A549. Type of data set: cell-based. The settings on record: Homo sapiens, read-out: IC50 (µM) Cancer Cell Lines A549. The text has this:
(§2) Cells and Materials. For the experiments, we used tumor cell cultures M-HeLa clone 11 (epithelioid carcinoma of the cervix, subline HeLa, clone M-HeLa), HuTu 80, human duodenal adenocarcinoma, Hep-2, human epithelial cells, SH-SY5Y, human neuroblast-like cells, A549, human lung adenocarcinoma, PA-1, human ovarian teratocarcinoma and MCF-7, a human mammary ductal adenocarcinoma from the collection of the Institute of Cytology, Russian Academy of Sciences (St. Petersburg, Russia); human liver cells (Chang liver) were from the collection and the Research Institute of Virology of the Russian Academy of Medical Sciences (Moscow, Russia).
(§3) MTT Assay. The cytotoxic effect on cells was determined using the colorimetric method of cell proliferation—the MTT test. NADP-H-dependent cellular oxidoreductase enzymes can, under certain conditions, reflect the number of viable cells. These enzymes reduce the tetrazolium dye (MTT) 3-(4,5-dimethylthiazol-2-yl)-2,5-diphenyl-tetrazolium bromide to insoluble blue-violet formazan, which crystallizes inside the cell. The amount of formed formazan is proportional to the number of cells with active metabolism. […] Optical density was recorded at 540 nm on an Invitrologic microplate reader (Novosibirsk, Russia). […]
(§4) Statistical analysis. The IC50 values were calculated using the MLA–Quest Graph™ IC50 Calculator (AAT Bioquest, Inc., Sunnyvale, CA, USA), 14 February 2022. […]

The test system of data set [3] is HuTu 80. Briefly: MTT cytotoxicity, HuTu 80. Type of data set: cell-based, human. As to conditions: for IC50: MTT, 48 h incubation, read-out: IC50 (µM) Cancer Cell Lines HuTu 80.
Description: as §2
(§5) MTT Assay. The cytotoxic effect on cells was determined using the colorimetric method of cell proliferation—the MTT test. NADP-H-dependent cellular oxidoreductase enzymes can, under certain conditions, reflect the number of viable cells. These enzymes reduce the tetrazolium dye (MTT) 3-(4,5-dimethylthiazol-2-yl)-2,5-diphenyl-tetrazolium bromide to insoluble blue-violet formazan, which crystallizes inside the cell. The amount of formed formazan is proportional to the number of cells with active metabolism. Cells were seeded on a 96-well Nunc plate at a concentration of 5 × 10^3 cells per well in a volume of 100 μL of medium and cultured in a CO2 incubator at 37 °C until a monolayer was formed. After the nutrient medium was removed, 100 µL of the test drug solutions at the given dilutions were added to the wells, which were prepared directly in the nutrient medium with the addition of 5% DMSO to improve solubility. After 48 h of incubation of the cells with the tested compounds, the nutrient medium was removed from the plates and 100 µL of the nutrient medium without serum with MTT at a concentration of 0.5 mg/mL was added and incubated for 4 h at 37 °C. Formazan crystals were added 100 µL of DMSO to each well. Optical density was recorded at 540 nm on an Invitrologic microplate reader (Novosibirsk, Russia). The experiments for all compounds were repeated three times.
(§6) Statistical analysis. The IC50 values were calculated using the MLA–Quest Graph™ IC50 Calculator (AAT Bioquest, Inc., Sunnyvale, CA, USA), 14 February 2022. Statistical analysis was performed with the Mann–Whitney test (p < 0.05). Tabular and graphical data contain averages and standard error.

The test system of data set [4] is M-HeLa. Briefly: MTT cytotoxicity, M-HeLa. It counts as cell-based, human. The settings on record: Homo sapiens, M-HeLa; MTT, 48 h incubation; read-out: IC50 (µM) Cancer Cell Lines M-HeLa.
Description: as §2, §5, §6

For data set [5], the system named is SH-SY5Y. The data set can be described thus: MTT cytotoxicity, SH-SY5Y. It counts as cell-based. The settings on record: Homo sapiens, read-out: IC50 (µM) Cancer Cell Lines SH-SY5Y.
Description: as §2, §3, §4

The subject of data set [6] is HuTu 80 cells. Briefly: Induction of apoptosis, flow cytometry (annexin V-Alexa Fluor 647 / propidium iodide). Type of data set: cell-based, human. As to conditions: IC50/2 and IC50, 24 h. As for the experimental part:
The ability of the new compounds, proposed as antitumor agents, to induce cell death via apoptosis is a critical feature for their potential use in therapy. The apoptosis-inducing effects of lead compounds were investigated using flow cytometry at IC50/2 and IC50 concentrations on the HuTu 80 cell line (Figure 6A).
as §1
Cell Apoptosis Analysis. The cells were harvested at 2000 rpm for 5 min and were then washed twice with ice-cold PBS, and resuspended in binding buffer. Next, the samples were incubated with 5 μL of annexin V-Alexa Fluor 647 (Sigma-Aldrich, St Louis, MO, USA) and 5 μL of propidium iodide for 15 min at room temperature in the dark. Finally, the cells were analyzed using flow cytometry (Guava easy Cyte, MERCK, Rahway, NJ, USA) within 1 h. The experiments were repeated three times.

The subject of data set [7] is MCF-7. Briefly: MTT cytotoxicity, MCF-7. Type of data set: cell-based. The settings on record: Homo sapiens, MCF7, read-out: IC50 (µM) Cancer Cell Lines MCF-7.
Description: as §2, §3, §4

The subject of data set [8] is PA-1. The data set can be described thus: MTT cytotoxicity, PA-1. As to conditions: Homo sapiens, read-out: IC50 (µM) Cancer Cell Lines PA-1. It counts as cell-based.
Description: as §2, §3, §4

The subject of data set [9] is Hep-2. Briefly: MTT cytotoxicity, Hep-2. It counts as cell-based. The settings on record: Homo sapiens, read-out: IC50 (µM) Cancer Cell Lines Hep-2.
Description: as §2, §3, §4

Data set [10] relates to Chang Liver. The data set can be described thus: MTT cytotoxicity, normal Chang liver cells. It counts as cell-based, human. As to conditions: Homo sapiens, Chang liver, 48 h incubation, read-out: IC50 (µM) Normal Cell Line Chang Liver.
Description: as §2, §5, §6

The test system of data set [11] is HuTu 80 cells. Briefly: Intracellular ROS, CellROX Deep Red flow cytometry. It counts as cell-based, human. As to conditions: IC50/2 and IC50. The protocol: The apoptosis via the mitochondrial pathway also increases the production of reactive oxygen species (ROS). As mitochondria itself becomes the target of ROS, an increase in their production disrupts mitochondrial functions and culminates in irreversible cell damage. Therefore, the effect of lead compounds 6a and 5a at IC50/2 and IC50 concentrations on ROS production in HuTu 80 cells was evaluated using flow cytometry. […] Such an effect is not observed for intact cells in the presence of both compounds, indicating an increase in ROS production in cancer tissues.
Detection of Intracellular ROS. HuTU 80 cells were incubated with lead compounds at concentrations of IC50/2 and IC50 for 48 h. ROS generation was investigated using flow cytometry assay and CellROX® Deep Red flow cytometry kit. For this purpose, […] cells were harvested at 2000 rpm for 5 min and then washed twice with ice-cold PBS, followed by resuspension in 0.1 mL of medium without FBS, to which was added 0.2 μL of CellROX® Deep Red, which was followed by incubation at 37 °C for 30 min. The cells were washed three times and suspended in PBS. After that, the production of ROS in the cells was immediately monitored using flow cytometer (Guava easy Cyte, MERCK, Rahway, NJ, USA).

The IC50 is the concentration needed to halve the response being measured. As for `Cc1cc(O)c(C(CCNC(=O)CCl)c2c(O)cc(C)oc2=O)c(=O)o1` [Compound 5a], the “mitochondrial membrane potential (in words)” value in data set [1] is “decreased”. In addition, the IC50 in [2] is 82.1 ± 3.56 µM; in [3] (Homo sapiens, HuTu80, 48 h), 1.7 µM; in data set [3], 1.9 ± 0.2 µM; in data set [4], 56.2 ± 4.7 µM; in data set [5] it was 75.8 ± 2.84 µM; in data set [7], 85.6 ± 3.12 µM. The figures for the IC50 in [8], in data set [9] and in data set [10] were 80.2 ± 4.05 µM, 65.8 ± 1.18 µM and 139 ± 11 µM, respectively. For the same compound, the “times more effective / more cytotoxic than the reference drug sorafenib” value in data set [3] (HuTu 80) came out at 1.7. Besides, the “apoptosis-inducing effect (in words)” value in data set [6] is reported as “apoptotic effects increase at the early apoptosis stage”. Moreover, in data set [11], the “ROS production, CellROX Deep Red fluorescence intensity (in words)” value is recorded as “significant reliable increase”.
